Measured values: BindingDB's records for doi:10.1021/jm0310479 (Roche Diagnostics, 2004)
Counter-ions that a name gives are not always drawn.

Columns and labels:
[1] = biological target: RAC-alpha serine/threonine-protein kinase (Homo sapiens, UniProt P31749); test: PKB In Vitro Kinase Assay; conditions: pH 7.5; 22 °C
Experimental: An ELISA-based assay has been developed for the serine/threonine kinase, PKB-alpha. The assay utilizes an N-terminally biotinylated substrate peptide. When this substrate is phosphorylated by the kinase, the product is recognized by a substrate/sequence-specific antibody, which binds to particular phosphorylated serine residues. […] Calculation of IC50 values was performed with ActivityBase.

[2] = biological target: cAMP-dependent protein kinase catalytic subunit alpha (Bos taurus, UniProt P00517); test: Fluorescence Polarization-based Assay; conditions: pH 7.2; 22 °C
Experimental: In this assay, a fluorescent phosphopeptide tracer and the nonfluorescent phosphopeptides generated during a PKA reaction compete for binding to an antiphosphoserine antibody. In a reaction mixture containing phosphopeptide product, the fluorescent tracer is displaced from the antibody and the emission signal becomes depolarized. Enzymatic activity was measured by detection of fluorescence polarity in a Victor 2 reader (Wallac, Finland). […] Calculation of IC50 values was performed with ActivityBase.

Chain of RAC-alpha serine/threonine-protein kinase (P31749 whole entry): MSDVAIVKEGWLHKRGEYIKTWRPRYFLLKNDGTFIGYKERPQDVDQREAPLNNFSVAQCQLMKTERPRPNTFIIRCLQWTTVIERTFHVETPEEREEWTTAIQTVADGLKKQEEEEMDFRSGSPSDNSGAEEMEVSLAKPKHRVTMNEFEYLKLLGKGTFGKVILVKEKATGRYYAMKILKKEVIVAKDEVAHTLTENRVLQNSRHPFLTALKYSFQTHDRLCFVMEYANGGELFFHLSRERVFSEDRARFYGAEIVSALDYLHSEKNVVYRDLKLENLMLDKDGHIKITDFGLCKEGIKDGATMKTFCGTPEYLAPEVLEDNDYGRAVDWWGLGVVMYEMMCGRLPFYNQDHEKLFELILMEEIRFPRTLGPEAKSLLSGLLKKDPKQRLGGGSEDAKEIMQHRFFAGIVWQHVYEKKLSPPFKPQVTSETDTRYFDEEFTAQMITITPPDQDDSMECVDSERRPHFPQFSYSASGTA

Row | Compound | IC50 [1] [µM] | IC50 [2] [µM]
1 | COc1ccc(O)c(C(=O)c2ccc(CO[C@@H]3CCCNC[C@H]3NC(=O)c3ccncc3)cc2)c1F [N-((3R,4R)-4-{[4-(2-fluoro-6-hydroxy-3-methoxybenzoyl)benzyl]oxy}azepan-3-yl)isonicotinamide dihydrochloride] | 0.355 | 
2 | COc1ccc(O)c(C(=O)c2ccc(NC[C@@H]3CCCNC[C@H]3NC(=O)c3ccncc3)cc2)c1F [N-[(3S,4S)-4-[({4-[(2-fluoro-6-hydroxy-3-methoxyphenyl)carbonyl]phenyl}amino)methyl]azepan-3-yl]pyridine-4-carboxamide trihydrochloride] | 25 | 45
